From patent US5013544A, “Contraceptive methods and compositions” (The Victoria University of Manchester, priority 1988, dated 1991) come the findings set out here.

One data set deals with human semen (sperm). Put plainly: Inhibition of motility of human sperm, ~1 min, in Tyrodes T6 medium (Example 1). The settings on record: about 1 minute, 25 degrees C., Tyrodes T6 + human albumin. The data set is classed as cell-based. The method, then: (§1) Chlorhexidine, as the diacetate salt, and/or nonoxynol-9 (50 μl. of an appropriate aqueous dilution) was dissolved in Tyrodes T6 balanced salt solution supplemented with 4 mg./ml. of human albumin. The solution was prepared and used immediately, by being mixed with 50 μl. of fresh human semen with a sperm concentration of at least 50 million per ml, and a motility of at least 80%, and incubated at 25 degrees C. for about 1 minute.
(§2) The motility of the sperm so treated was measured by one of two methods:
(§3) (1) If the concentration of chlorhexidine caused protein precipitation, motility was estimated by phase contrast microscopy at 200× magnification in a 10 μm deep counting chamber.
(§4) (2) If the solution remained optically clear, motility was measured by laser Doppler spectroscopy. This technique involves the analysis by auto-correlation of the fraction of the scattered laser light which contains the Doppler-shifted frequencies generated by interaction between the incident laser and the sperm head.

The next data set deals with sperm (semen). Put plainly: Spermicidal action in isotonic aqueous sucrose: % of sperm motile 1 minute after contact (Example 2). Type of data set: cell-based, human. The method, then:
as §1, §2, §3, §4
The procedure of Example 1 was repeated, using solutions of the specified compounds (nonoxenol-9 and chlorhexidine diacetate) in an isotonic aqueous solution of sucrose, the spermicidal action of nonoxenol-9 and chlorhexidine diacetate, derived from five examinations, each being measured in duplicate. The concentrations are the final values in semen.
The values expressed are the percentages, expressed as a mean, of the sperm which are motile 1 minute after contact with the spermicide.

The nature of data set [1]: Stability of spermicidal activity of chlorhexidine / composition in solution. The data set is classed as physicochemical.
For the next data set, the system named is sperm. Put plainly: Site of spermicidal action (vagina, cervical mucus). Conditions: vagina and cervical mucus; no test described.

`[H]/N=C(\N/C(=N/[H])NCCCCCCNC(=N)NC(=N)Nc1ccc(Cl)cc1)Nc1ccc(Cl)cc1` [Chlorhexidine, 1:6-di-(N-p-chlorophenyl-diguanido)-hexane]: in the data set on human semen (sperm) (0.5 mg./ml.), the “% Inhibition of motility” value was “ZERO”. Also, the inhibition (usually the share of the control response that was lost under treatment) at 2000 µg/mL in the data set with human semen (sperm) (Sperm, 1 min, 2 mg./ml.) amounted to 5%. The “percentage of the sperm which are motile 1 minute after contact (mean)” value with sperm (semen) (Chlorhexidine 0.5 mg/ml, nonoxynol-9 0, untreated 50.37) is 39.32%; with sperm (semen) (Chlorhexidine 1.0 mg/ml, nonoxynol-9 0, untreated 50.37), 16.14%; with sperm (semen) (Chlorhexidine 2.0 mg/ml, nonoxynol-9 0, untreated 50.37), 10.02%; in the data set on sperm (semen) (Chlorhexidine 5.0 mg/ml, nonoxynol-9 0, untreated 50.37), 0%. The “loss of spermicidal activity” value in data set [1] (chloride ion at physiological concentrations) was “lose its spermicidal activity in less than two hours”. In data set [1] (in some circumstances and formulations, associated with certain anions), the “tendency to lose spermicidal activity” value was “marked tendency to lose its spermicidal activity”. The “stability of aqueous solution” value in data set [1] (isotonic aqueous sucrose solution) was “remained stable for greater than three days”. The “site of spermicidal action” value with sperm is “acts as a spermicide both in the vagina and in the cervical mucus”.

For Nonoxynol-9, the entries for the “% Inhibition of motility” value in the data set on human semen (sperm) (0.5 mg./ml.) and with human semen (sperm) (2 mg./ml.) were “ZERO” and 100%, respectively. The “percentage of the sperm which are motile 1 minute after contact (mean)” value in the data set on sperm (semen) (Nonoxynol-9 0.2 mg/ml, chlorhexidine 0, untreated 50.37) is 31.09%; with sperm (semen) (Nonoxynol-9 0.4 mg/ml, chlorhexidine 0, untreated 50.37), 0%; in the data set on sperm (semen) (Nonoxynol-9 0.6 mg/ml, chlorhexidine 0, untreated 50.37) it was 0%. For the same compound, in the data set on sperm, the “site of spermicidal action” value is “only spermicidal in the vagina and does not enter the cervical mucus”.
